Experimental data reported in US20080114005A1, “Fibrate Compounds Having Ppar Agonist Activity” (Dr. Reddy's Laboratories Limited, priority 2004, published 2008).

Key:
Swiss albino mice = test: plasma triglyceride lowering activity in Swiss albino mice; assay type: in vivo; conditions: 3.0 mg/kg orally for 6 days
Procedure: The properties of the derivatives of the invention were also evaluated in vivo. The following procedure was used to determine plasma triglyceride and total cholesterol lowering activity in Swiss albino mice.
Male Swiss albino mice (SAM) were obtained from National Institute Nutrition (NIN) and housed in Dr. Reddy's Laboratories Ltd (DRL) animal house. All these animals are maintained under 12 hour light and dark cycle at 25±1° C. Animals were given standard laboratory chow (NIN, Hyderabad, India) and water, ad libitum. SAM of 20-25 grams body weight range were used. See Oliver, P., Plancke, M. O., Marzin, D., Clavey, V., Sauzieres, J and Fruchart, J. C. Effects of fenofibrate, gemfibrozil and nicotinic acid on plasma lipoprotein levels in normal and hyperlipidemic mice, Atherosclerosis. 1988. 70: 107-114, incorporated herein by reference in its entirety. The test compounds can be administered orally to Swiss albino mice at the dose mentioned in table for 6 days. Control mice were treated with vehicle 0.25% Carboxymethylcellulose (CMC; dose 10 ml/kg). The blood samples from the retro-orbital sinus through heparinised capillary in EDTA containing tubes were collected in fed state 1 hour after drug administration on 0 and 6 days of treatment. After centrifugation plasma was separated for triglyceride measurement using commercial kits. See Wieland, O. Methods of Enzymatic analysis. Bergermeyer, H. O., Ed., 1963. 211-214; Trinder, P. Ann. Clin. Biochem. 1969. 6: 24-27, incorporated herein by reference in its entirety. Percent reduction was calculated as per the formula given in Petit, D., Bonnefis, M. T., Rey, C. and Infante, R. Effects of ciprofibrate on liver lipids and lipoprotein synthesis in normo- and hyperlipidemic rats. Atherosclerosis. 1988. 74 : 215-225.

human PPARα = molecular target: T1, human PPARα (Homo sapiens, UniProt Q07869); test: in vitro PPARα transactivation, GAL4-LBD luciferase reporter in HEK-293 cells; assay type: cell-based; conditions: luciferase fold activation relative to untreated cells
T1 construct: expressed in transfected cells; host or cells: HEK-293
T1 sequence (Q07869 239-466 limits assumed): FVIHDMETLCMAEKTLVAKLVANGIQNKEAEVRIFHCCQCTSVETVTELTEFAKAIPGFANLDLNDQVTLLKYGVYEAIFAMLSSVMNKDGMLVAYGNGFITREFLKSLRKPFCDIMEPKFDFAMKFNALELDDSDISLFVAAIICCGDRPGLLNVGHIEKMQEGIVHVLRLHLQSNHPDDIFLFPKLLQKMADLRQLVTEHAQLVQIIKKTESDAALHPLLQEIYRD
Excerpt: A number of derivatives of the invention have shown PPAR agonist activity. The following procedure was used for in vitro determination of PPARα, γ and δ transactivation.
(§1) The ligand binding domain of human PPARγ1, PPARα or PPARδ was fused to the C-terminal end of DNA binding domain of yeast transcription factor GAL4 in eukaryotic expression vector. HEK-293 cells were transfected with either of these plasmids, reporter plasmid pGL2 (Gal4×5)˜SV40˜Luc and pAdVantage using superfect (Qiagen, Germany) for 3 hours. pAdVantage vector was used to enhance the luciferase expression. 48 hours after transfection, the cells were harvested and incubated overnight with or without test compounds at different concentrations. The cells were lysed and luciferase activity was measured using the LucLite kit (Packard USA). Luciferase activity was measured as fold activation relative to untreated cells.

human PPARδ = molecular target: T2, human PPARδ (Homo sapiens, UniProt Q03181); test: in vitro PPARδ transactivation, GAL4-LBD luciferase reporter in HEK-293 cells; assay type: cell-based; conditions: luciferase fold activation relative to untreated cells
T2 construct: expressed in transfected cells; host or cells: HEK-293
T2 sequence (Q03181 211-439 limits assumed): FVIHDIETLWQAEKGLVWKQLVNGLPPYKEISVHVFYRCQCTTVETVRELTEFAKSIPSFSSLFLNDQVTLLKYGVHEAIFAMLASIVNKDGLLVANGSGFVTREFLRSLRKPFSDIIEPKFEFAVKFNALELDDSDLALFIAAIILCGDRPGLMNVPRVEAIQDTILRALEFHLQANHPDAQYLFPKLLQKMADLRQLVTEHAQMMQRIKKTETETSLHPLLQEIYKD
Procedure: The following procedure was used for in vitro determination of PPARα, γ and δ transactivation.
as §1

Row | SMILES | melting point [°C] | other results
1 | CCCc1nn(C)c2c(=O)n(CCCc3ccc(OC(C)(C)C(=O)O)cc3)c(C)nc12.N=C(N)NCCC[C@H](N)C(=O)O [Example 79, Argenine salt of 2-{4-[3-(1,5-dimethyl-7-oxo-3-propyl-1,7-dihydro-pyrazolo[4,3-d]pyrimidin-6-yl)-propyl]-phenoxy}-2-methyl-propionic acid] | – | % reduction in TG (Swiss albino mice): 55%
2 | CCc1nc2ccccc2c(=O)n1CCOc1ccc(SC(C)(C)C(=O)O)cc1 [Example 34, 2-{4-[2-(2-Ethyl-4-oxo-4H-quinazolin-3-yl)-ethoxy]-phenylsulfanyl}-2-methyl-propionic acid] | 148 to 150 | –
3 | Cc1nc2ccccc2c(=O)n1CCCNc1ccc(SC(C)(C)C(=O)O)cc1 [Example 8, 2-Methyl-2-{4-[3-(2-methyl-4-oxo-4H-quinazolin-3-yl)-propylamino]-phenylsulfanyl}-propionic acid] | 162 to 164 | –
4 | CCCc1nn(C)c2c(=O)n(CCNc3ccc(SC(C)(C)C(=O)OCC)cc3)c(CC)nc12 [Example 41, 2-{4-[2-(5-Ethyl-1-methyl-7-oxo-3-propyl-1,7-dihydro-pyrazolo[4,3-d]pyrimidin-6-yl)-ethylamino]-phenylsulfanyl}-2-methyl-propionic acid ethyl ester] | 105 to 107 | –
5 | CCCc1nn(C)c2c(=O)n(CCCOc3ccc(SC(C)(C)C(=O)O)cc3)c(CC)nc12 [Example 40, 2-{4-[3-(5-Ethyl-1-methyl-7-oxo-3-propyl-1,7-dihydro-pyrazolo[4,3-d]pyrimidin-6-yl)-propoxy]-phenylsulfanyl}-2-methyl-propionic acid] | 115 to 117 | –
6 | CCCc1nn(C)c2c(=O)n(CCCOc3ccc(OC(C)(C)C(=O)O)cc3)cnc12 [Example 64, 2-Methyl-2-{4-[3-(1-methyl-7-oxo-3-propyl-1,7-dihydro-pyrazolo[4,3-d]pyrimidin-6-yl)-propoxy]-phenoxy}-propionic acid] | 136 to 138 | –
7 | CCc1nc2ccccc2c(=O)n1CCNc1ccc(SC(C)(C)C(=O)O)cc1 [Example 4, 2-{4-[2-(2-Ethyl-4-oxo-4H-quinazolin-3-yl)-ethylamino]-phenylsulfanyl}-2-methyl-propionic acid] | 124 to 126 | –
8 | CCCc1nn(C)c2c(=O)n(CCOc3cc(O[C@@](C)(CC)C(=O)O)ccc3Cl)c(C)nc12 [Example 106, S-(−)-2-{4-Chloro-3-[2-(1,5-dimethyl-7-oxo-3-propyl-1,7-dihydro-pyrazolo[4,3-d]pyrimidin-6-yl)-ethoxy]-phenoxy}-2-methyl-butyric acid] | 99 to 100 | –
9 | CCCc1nn(C)c2c(=O)n(CCOc3ccc(SC(C)(C)C(=O)O)cc3)c(CC)nc12 [Example 44, 2-{4-[2-(5-Ethyl-1-methyl-7-oxo-3-propyl-1,7-dihydro-pyrazolo[4,3-d]pyrimidin-6-yl)-ethoxy]-phenylsulfanyl}-2-methyl-propionic acid] | 104 to 106 | –
10 | Cc1nc2ccccc2c(=O)n1CCCCNc1ccc(SC(C)(C)C(=O)O)cc1 [Example 14, 2-Methyl-2-{4-[4-(2-methyl-4-oxo-4H-quinazolin-3-yl)-butylamino]-phenylsulfanyl}-propionic acid] | 100 to 102 | –
11 | CCCc1nc2ccccc2c(=O)n1CCNc1ccc(SC(C)(C)C(=O)O)cc1 [Example 6, 2-Methyl-2-{4-[2-(4-oxo-2-propyl-4H-quinazolin-3-yl)-ethylamino]-phenylsulfanyl}-propionic acid] | 162 to 164 | –
12 | CCCc1nn(C)c2c(=O)n(CCCc3cccc(OC(C)(CC)C(=O)O)c3)c(C)nc12 (stereo not shown) [Example 87, 2-{3-[3-(1,5-Dimethyl-7-oxo-3-propyl-1,7-dihydro-pyrazolo[4,3-d]pyrimidin-6-yl)-propyl]-phenoxy}-2-methyl-butyric acid] | 136 to 138 | –

Now from value to compound, other results behind:

Row | melting point [°C] | SMILES | other results
13 | 88 to 90 | CCCc1nn(C)c2c(=O)n(CCNc3ccc(OC(C)(C)C(=O)O)cc3)c(C)nc12 [Example 62, 2-{4-[2-(1,5-Dimethyl-7-oxo-3-propyl-1,7-dihydro-pyrazolo[4,3-d]pyrimidin-6-yl)-ethylamino]-phenoxy}-2-methyl-propionic acid] | –
14 | 178 to 180 | CCCc1nn(CC)c2c(=O)n(CCOc3ccc(SC(C)(C)C(=O)O)cc3)c(C)nc12 [Example 52, 2-{4-[2-(1-Ethyl-5-methyl-7-oxo-3-propyl-1,7-dihydro-pyrazolo[4,3-d]pyrimidin-6-yl)-ethoxy]-phenylsulfanyl}-2-methyl-propionic acid] | –
15 | 86 to 88 | CCCc1nn(C)c2c(=O)n(CCOc3cccc(OC(C)(C)C(=O)OCC)c3)c(C)nc12 [Example 88, 2-{3-[2-(1,5-Dimethyl-7-oxo-3-propyl-1,7-dihydro-pyrazolo[4,3-d]pyrimidin-6-yl)-ethoxy]-phenoxy}-2-methyl-propionic acid ethyl ester] | PPARα activation (human PPARα; test compound at 1 μM): 1.6; PPARα activation (human PPARα; test compound at 10 μM): 3.6; PPARδ activation (human PPARδ; test compound at 1 μM): 0.3; PPARδ activation (human PPARδ; test compound at 10 μM): 0.6
16 | 144 to 146 | CCCc1nn(C)c2c(=O)n(CCOc3ccc(OC(C)(C)C(=O)O)cc3)cnc12 [Example 58, 2-Methyl-2-{4-[2-(1-methyl-7-oxo-3-propyl-1,7-dihydro-pyrazolo[4,3-d]pyrimidin-6-yl)-ethoxy]-phenoxy}-propionic acid] | –
17 | 66 to 68 | CCCc1nn(C)c2c(=O)n(CCOc3ccc(OC(C)(C)C(=O)OCC)cc3)c(CC)nc12 [Example 69, 2-{4-[2-(5-Ethyl-1-methyl-7-oxo-3-propyl-1,7-dihydro-pyrazolo[4,3-d]pyrimidin-6-yl)-ethoxy]-phenoxy}-2-methyl-propionic acid ethyl ester] | –
18 | 106 to 108 | CCCc1nn(C)c2c(=O)n(CCOc3ccc(SC(C)(C)C(=O)OCC)cc3)c(C)nc12 [Example 31, 2-{4-[2-(1,5-Dimethyl-7-oxo-3-propyl-1,7-dihydro-pyrazolo[4,3-d]pyrimidin-6-yl)-ethoxy]-phenylsulfanyl}-2-methyl-propionic acid ethyl ester] | –
19 | 158 to 160 | CCCc1nn(C)c2c(=O)n(CCCOc3ccc(OC(C)(C)C(=O)O)cc3)c(C)nc12 [Example 66, 2-{4-[3-(1,5-Dimethyl-7-oxo-3-propyl-1,7-dihydro-pyrazolo[4,3-d]pyrimidin-6-yl)-propoxy]-phenoxy}-2-methyl-propionic acid] | –
20 | 188 to 190 | CCCc1nn(C)c2c(=O)n(CCOc3ccc(OC4(C(=O)O)CCC4)cc3)c(C)nc12 [Example 91, 1-{4-[2-(1,5-Dimethyl-7-oxo-3-propyl-1,7-dihydro-pyrazolo[4,3-d]pyrimidin-6-yl)-ethoxy]-phenoxy}-cyclobutanecarboxylic acid] | –
21 | 98 to 100 | CCCc1nn(C)c2c(=O)n(CCOc3ccc(OC(C)(C)C(=O)OCC)cc3)c(C)nc12 [Example 59, 2-{4-[2-(1,5-Dimethyl-7-oxo-3-propyl-1,7-dihydro-pyrazolo[4,3-d]pyrimidin-6-yl)-ethoxy]-phenoxy}-2-methyl-propionic acid ethyl ester] | –
